Assay results taken from BindingDB's records for doi:10.7270/Q2DF6PMF (Nmmlsc, 2007).
Where a name gives a salt, the structure may show the parent alone.

Each compound was assayed against T1, N-formyl peptide receptor 2 (Homo sapiens, UniProt P25090) (assay: FPRL1 binding inhibitor potency, dose response, cell-based, FPR counter-screen, fluorescent ligand (AID 520)). Details: not given.
T1 sequence (P25090 whole entry): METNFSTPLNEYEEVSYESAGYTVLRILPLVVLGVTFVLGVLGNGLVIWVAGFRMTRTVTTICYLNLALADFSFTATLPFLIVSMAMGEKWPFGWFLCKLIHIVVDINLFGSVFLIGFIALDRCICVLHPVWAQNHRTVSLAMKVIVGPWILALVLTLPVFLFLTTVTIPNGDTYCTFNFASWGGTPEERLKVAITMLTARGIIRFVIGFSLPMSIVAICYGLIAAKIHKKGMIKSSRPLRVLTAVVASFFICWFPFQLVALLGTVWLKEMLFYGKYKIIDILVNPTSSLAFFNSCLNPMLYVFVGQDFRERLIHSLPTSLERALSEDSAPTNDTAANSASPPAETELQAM

| Structure (SMILES) | IC50 | Ki |
| --- | --- | --- |
| Cc1cc(NC(=O)CSc2nnc(Cn3c(=O)sc4ccccc43)n2-c2ccccc2C)no1 [N-(5-methyl-3-isoxazolyl)-2-[[4-(2-methylphenyl)-5-[(2-oxo-1,3-benzothiazol-3-yl)methyl]-1,2,4-triazol-3-yl]thio]acetamide] | > 66.7 µM | – |
| Cc1ccc(NC(=O)c2oc3ccc(S(=O)(=O)N4CCOCC4)cc3c2C)cc1C [MLS000046288] | > 66.7 µM | – |
| CCN(CCCc1ccccc1)CCCc1ccccc1 [ALVERINE CITRATE SALT] | > 66.7 µM | – |
| CCSc1nnc(NC(=O)CSc2nnc(Cc3cccn3C)n2CCc2ccccc2)s1 [MLS000092939] | > 66.7 µM | – |
| COC(=O)c1[nH]c(C)c(C(=O)C2C(=O)C(=O)N(CCN3CCOCC3)C2c2cccnc2)c1C (stereo unspecified) [4-[(E)-hydroxy-[1-[2-(4-morpholinyl)ethyl]-4,5-dioxo-2-(3-pyridinyl)-3-pyrrolidinylidene]methyl]-3,5-dimethyl-1H-pyrrole-2-carboxylic acid methyl ester] | > 66.7 µM | > 40.3 µM |
| CCOC(=O)c1c(NC(=O)c2cc(C3CC3)on2)sc2c1CCCC2 [2-[(5-cyclopropylisoxazole-3-carbonyl)amino]-4,5,6,7-tetrahydrobenzothiophene-3-carboxylic acid ethyl ester] | > 66.7 µM | – |
| COc1ccc(-c2nnc(Nc3nc4c(OC)cccc4s3)o2)c(OC)c1 [5-(2,4-dimethoxyphenyl)-N-(4-methoxy-1,3-benzothiazol-2-yl)-1,3,4-oxadiazol-2-amine] | > 66.7 µM | – |
| C=CCOc1ccc(C2C(C(=O)c3cccs3)C(=O)C(=O)N2c2nnc(C)s2)cc1 (stereo unspecified) [1-(5-methyl-1,3,4-thiadiazol-2-yl)-4-oxidanyl-2-(4-prop-2-enoxyphenyl)-3-thiophen-2-ylcarbonyl-2H-pyrrol-5-one] | > 66.7 µM | > 40.3 µM |
| CCCOc1ccc(C2C(C(=O)c3ccc(C)o3)C(=O)C(=O)N2CCCn2ccnc2)cc1 (stereo unspecified) [1-(3-imidazol-1-ylpropyl)-3-(5-methylfuran-2-yl)carbonyl-4-oxidanyl-2-(4-propoxyphenyl)-2H-pyrrol-5-one] | > 66.7 µM | > 40.3 µM |
| CC1(C)S[C@@H]2[C@H](NC(=O)C(C(=O)O)c3ccccc3)C(=O)N2[C@H]1C(=O)O (stereo partly specified) [CARBENICILLIN DISODIUM SALT] | > 66.7 µM | – |
| O=C(NC1CCCC1)c1sc(=S)n2c1[nH]c(=O)c1ccccc12 | > 66.7 µM | – |
| CCOc1ccc(C2C(C(=O)c3cccs3)C(=O)C(=O)N2CCCn2ccnc2)cc1 (stereo unspecified) [2-(4-ethoxyphenyl)-1-(3-imidazol-1-ylpropyl)-4-oxidanyl-3-thiophen-2-ylcarbonyl-2H-pyrrol-5-one] | > 66.7 µM | > 40.3 µM |
| COc1ccc(OC)c(NC(=O)C2C3CCC(C3=C(C)C)C2C(=O)O)c1 (stereo unspecified) [MLS000110216] | > 66.7 µM | – |
| CCCNC(=O)CS(=O)(=O)Cc1nc(-c2cccc(OC)c2)oc1C [2-[[2-(3-methoxyphenyl)-5-methyl-1,3-oxazol-4-yl]methylsulfonyl]-N-propyl-ethanamide] | > 66.7 µM | – |
| COCCCN1C(=O)C(=O)C(C(=O)c2ccco2)C1c1ccc(Br)cc1 (stereo unspecified) [2-(4-bromophenyl)-3-(furan-2-carbonyl)-4-hydroxy-1-(3-methoxypropyl)-2H-pyrrol-5-one] | > 66.7 µM | > 40.3 µM |
| COc1ccc(-c2nc(N3CCCC3)[nH]c(=O)c2C#N)cc1 [6-(4-methoxyphenyl)-4-oxidanylidene-2-pyrrolidin-1-yl-1H-pyrimidine-5-carbonitrile] | > 66.7 µM | – |
| COC(=O)C1=[N+]([O-])OC(C(=O)OC)C1c1c[nH]c2ccccc12 (stereo unspecified) [MLS000090094] | > 66.7 µM | – |
| O=C(NC1CCCCC1)c1sc(=S)n2c1[nH]c(=O)c1ccccc12 [SMR000030293] | > 66.7 µM | – |
| COc1ccccc1Oc1c(C)oc2c(CN(C)C)c(O)ccc2c1=O [8-Dimethylaminomethyl-7-hydroxy-3-(2-methoxy-phenoxy)-2-methyl-chromen-4-one] | > 66.7 µM | – |
| O=C1CCCC(=O)C1C(C#Cc1ccccc1)C1C(=O)CCCC1=O [3-hydroxy-2-[1-(2-hydroxy-6-keto-cyclohexen-1-yl)-3-phenyl-prop-2-ynyl]cyclohex-2-en-1-one] | > 66.7 µM | > 40.3 µM |
| COc1cc(C2C(C(=O)c3ccco3)C(=O)C(=O)N2CCc2ccccc2)ccc1O (stereo unspecified) [3-(furan-2-carbonyl)-4-hydroxy-2-(4-hydroxy-3-methoxyphenyl)-1-(2-phenylethyl)-2H-pyrrol-5-one] | > 66.7 µM | > 40.3 µM |

More lines, now with the values ahead:

| IC50 | Ki | Structure (SMILES) |
| --- | --- | --- |
| > 66.7 µM | > 40.3 µM | Cc1ccsc1C1C2C(=O)CC(C)(C)CC2=Nc2ncnn21 (stereo unspecified) [6,6-dimethyl-9-(3-methyl-2-thienyl)-1,5,7,9-tetrahydro-[1,2,4]triazolo[5,1-b]quinazolin-8-one] |
| > 66.7 µM | > 40.3 µM | CC1Cc2cc(C(=O)C3C(=O)C(=O)N(CCN4CCOCC4)C3c3ccccc3F)ccc2O1 (stereo unspecified) [(4E)-5-(2-fluorophenyl)-4-[(2-methyl-2,3-dihydro-1-benzofuran-5-yl)-oxidanyl-methylidene]-1-(2-morpholin-4-ylethyl)pyrrolidine-2,3-dione] |
| > 66.7 µM | – | CCCCn1c(NC(C)=O)c(C#N)c2nc3ccccc3nc21 [MLS000079917] |
| > 66.7 µM | – | CC1CCN(S(=O)(=O)c2ccc3c(c2)oc(=O)n3CC(=O)NCc2ccc3c(c2)OCO3)CC1 [2-[2-keto-6-(4-methylpiperidino)sulfonyl-1,3-benzoxazol-3-yl]-N-piperonyl-acetamide] |
| > 66.7 µM | – | COC(=O)C1(S(=O)(=O)c2cccc3nsnc23)CC1 [1-(2,1,3-benzothiadiazol-4-ylsulfonyl)-1-cyclopropanecarboxylic acid methyl ester] |
| > 66.7 µM | > 40.3 µM | COc1ccc(CCN2C(=O)C(=O)C(C(=O)c3ccco3)C2c2cccs2)cc1OC (stereo unspecified) [1-[2-(3,4-Dimethoxy-phenyl)-ethyl]-4-(furan-2-carbonyl)-3-hydroxy-5-thiophen-2-yl-1,5-dihydro-pyrrol-2-one] |
| > 66.7 µM | – | CCOC(=O)c1c(NC(=O)C2C3CCC(O3)C2C(=O)O)sc(C)c1-c1ccc(C)cc1 (stereo unspecified) [2-[[[3-ethoxycarbonyl-5-methyl-4-(4-methylphenyl)-2-thiophenyl]amino]-oxomethyl]-7-oxabicyclo[2.2.1]heptane-3-carboxylic acid] |
| > 66.7 µM | – | CCOC(=O)c1oc2cc(O)ccc2c(=O)c1-c1ccccc1OC |
| > 66.7 µM | – | CCOC(=O)Cc1cc(=O)n2[nH]c(C)c(-c3ccc(OC)cc3)c2n1 |
| > 66.7 µM | – | CCc1nnc(NC(=O)CSc2nnc(-c3cc4ccccc4cc3O)n2CC)s1 [2-[4-Ethyl-5-(3-hydroxy-naphthalen-2-yl)-4H-[1,2,4]triazol-3-ylsulfanyl]-N-(5-ethyl-[1,3,4]thiadiazol-2-yl)-acetamide] |
| > 66.7 µM | > 40.3 µM | O=C1C(=O)N(Cc2ccccc2)C(c2cccnc2)C1C(=O)c1ccco1 (stereo unspecified) [1-Benzyl-4-(furan-2-carbonyl)-3-hydroxy-5-pyridin-3-yl-1,5-dihydro-pyrrol-2-one] |
| > 66.7 µM | – | CCCN=C(S)Nc1ccc(Nc2ccccc2)cc1 [1-(4-anilinophenyl)-3-propyl-thiourea] |
| > 66.7 µM | > 40.3 µM | Cc1ccc(C(=O)C2C(=O)C(=O)N(CC(C)O)C2c2ccc(N(C)C)cc2)cc1 (stereo unspecified) [(4E)-5-[4-(dimethylamino)phenyl]-1-(2-hydroxypropyl)-4-[hydroxy(p-tolyl)methylene]pyrrolidine-2,3-quinone] |
| > 66.7 µM | – | O=c1c2c(nc3c(-c4ccc(Cl)cc4)c[nH]n13)CCCC2 |
| > 66.7 µM | – | O=C(O)C1CC=CCC1C(=O)N1CCN(c2nc(-c3ccccc3)c3ccccc3n2)CC1 (stereo unspecified) [6-[4-(4-phenylquinazolin-2-yl)piperazin-1-yl]carbonylcyclohex-3-ene-1-carboxylic acid] |
| > 66.7 µM | > 40.3 µM | O=c1c(C23CC4CC(CC(C4)C2)C3)c(O)n(-c2ccccc2)n1-c1ccccc1 [MLS000526352] |
| > 66.7 µM | – | O=C(O)CC1Oc2ccc(Cl)cc2NC1=O (stereo unspecified) [2-(6-chloranyl-3-oxidanylidene-4H-1,4-benzoxazin-2-yl)ethanoic acid] |
| > 66.7 µM | > 40.3 µM | COC(=O)Cc1n[nH]c2c1C(C1C=CCCC1)C(C#N)C(=N)O2 (stereo unspecified) [2-[6-amino-5-cyano-4-(1-cyclohex-2-enyl)-2,4-dihydropyrano[2,3-c]pyrazol-3-yl]acetic acid methyl ester] |
| > 66.7 µM | – | O=C(Cn1c(=O)oc2ccccc21)N1CCN(c2ccccc2)CC1 [3-[2-keto-2-(4-phenylpiperazino)ethyl]-1,3-benzoxazol-2-one] |
| > 66.7 µM | > 40.3 µM | CCCOc1ccc(C2C(C(=O)c3ccco3)C(=O)C(=O)N2CCCn2ccnc2)cc1 (stereo unspecified) [3-(furan-2-carbonyl)-4-hydroxy-1-(3-imidazol-1-ylpropyl)-2-(4-propoxyphenyl)-2H-pyrrol-5-one] |
| > 66.7 µM | > 40.3 µM | COc1cc(-n2nc(C)c3c2OC(=N)C(C#N)C3c2ccccc2)c(Cl)c(Br)c1O (stereo unspecified) [6-amino-1-(3-bromo-2-chloro-4-hydroxy-5-methoxyphenyl)-3-methyl-4-phenyl-1,4-dihydropyrano[2,3-c]pyrazole-5-carbonitrile] |
| > 66.7 µM | – | COc1ccc(Cl)cc1-n1c(=S)sc2c(O)nc(SCC(=O)NCC3CCCO3)nc21 (stereo unspecified) [2-[[3-(5-chloranyl-2-methoxy-phenyl)-7-oxidanylidene-2-sulfanylidene-4H-[1,3]thiazolo[4,5-d]pyrimidin-5-yl]sulfanyl]-N-(oxolan-2-ylmethyl)ethanamide] |
| > 66.7 µM | – | CCC(CC)C(=O)Nc1c2cnn(-c3ccccc3)c2nc(=O)n1-c1ccccc1 [2-ethyl-N-(6-keto-1,5-diphenyl-pyrazolo[3,4-d]pyrimidin-4-yl)butyramide] |

Same assay, conditions: inactive by the depositor's call

| IC50 | Structure (SMILES) |
| --- | --- |
| 18.2 µM | CNc1nn(-c2cccc(Cl)c2)nc1N [2-(3-chlorophenyl)-4-N-methyltriazole-4,5-diamine] |
